Test results taken from a melting point compilation (Tetko et al.).

Structure (SMILES) | melting point [°C]
O=C(O)c1cc(S(=O)(=O)N2CCSCC2)c[nH]1 | 238 to 240
O=S(=O)(O)C1CCCNC1 (centres undefined) | 304 to 306
CCN(CC)S(=O)(=O)c1ccc(-c2csc(N)n2)cc1 | 234 to 236
O=C(Nc1ccccn1)c1cc2ccccc2cc1O | 236 to 238
O=c1[nH]c(-c2cccnc2)no1 | 234 to 236
CCC(C)NC(=O)C1CC(C)Nc2ccccc21 (centres undefined) | 121 to 123
COc1ccc(-n2c(CCl)nc3ccccc32)cc1 | 121 to 125
CCOC(=O)c1cc2cc(N)ccc2s1 | 89 to 91
Cc1nc2ccccn2c1I | 123 to 125
Cc1cc(N)ccc1N1C(=O)CCC1=O | 167 to 169
Nc1nc(C(=O)O)n[nH]1 | 178 to 182
Cc1cc(Oc2ccc(N)cc2)n[nH]1 | 189 to 191
Nc1ccc(-c2cccc(C(F)(F)F)c2)cn1 | 101 to 103
Cc1cc(C)c(C(=O)CCl)c(C)c1C | 61 to 63
Nc1ccc(Oc2ccnc3cc(Cl)ccc23)c(F)c1 | 154 to 156
CC(C)(C)OC(=O)N1CCC(O)(c2ccccc2CO)CC1 | 106 to 108
CN1CCN(S(=O)(=O)c2cccnc2NN)CC1 | 109 to 111
NCc1ccc2c(c1)CCO2 | 38 to 40
CS(=O)(=O)NCc1ccc(N)cc1 | 146 to 148
COC(=O)c1sc(Cl)nc1Cl | 54 to 56
O=C(O)C1CCCCC1C(=O)NC1CCS(=O)(=O)C1 (centres undefined) | 137 to 139
Nc1ccc2c(c1)CC(=O)N2 | 190 to 192
CC(N)=NS(=O)(=O)c1cc(Br)ccc1Br | 182 to 184
CCC(=O)c1cnn(C)c1 | 44 to 46
CCc1cnc(N)s1 | 54 to 56
CC(C)Oc1ccc(S(N)(=O)=O)c2ccccc12 | 95 to 97
COc1cc(C)c(Br)cc1S(=O)(=O)Cl | 137 to 139

Structure (SMILES) | melting point [°C]
CN1C(=O)NC(=O)C12CCCCC2 | 172 to 174
COc1cc(C=O)cc(Cl)c1OC | 56 to 58
O=S(=O)(Cl)c1ccc(S(=O)(=O)N2CCCCC2)cc1 | 151 to 153
CCC1CCc2[nH]c3ccc(C)cc3c2C1 (centres undefined) | 59 to 61
COc1ccc2[nH]c3c(c2c1)CC1(CC3)OCCO1 | 149 to 151
CCOc1cc(C=CC#N)ccc1OC | 57 to 59
O=C(O)CCc1cscn1 | 156 to 158
Cc1ccc(S(=O)(=O)OCC2CCOCO2)cc1 (centres undefined) | 63 to 65
N#Cc1cc(F)c(S(=O)(=O)Cl)c(F)c1 | 92 to 94
CC1(CCCC(=O)O)NC(=O)NC1=O (centres undefined) | 149 to 151
COc1ccc(N2CCC(N)CC2)cc1 | 50 to 52
CNC(=Nc1cc(C)nn1-c1ccccc1)c1ccc(F)cc1 | 227 to 228
CCCNC(=O)CN1CCNCC1 | 31 to 32
COc1cc2[nH]nnc2cc1C(=O)O | 219 to 221
O=C(c1cccnc1)c1ccc(F)cc1F | 54 to 56
CS(=O)(=O)Nc1ccc(N)cc1Br | 146 to 148
CC(NC(=O)C1CCOCC1)C(=O)O (centres undefined) | 178 to 180
CC(Oc1cccnc1N)c1ccccc1 (centres undefined) | 83 to 85
CNS(=O)(=O)C1CCNCC1 | 168 to 170
O=C(O)CCNC(=O)C12CC3CC(CC(C3)C1)C2 | 185 to 187
CN1CCN(c2ncc(C=O)cn2)CC1 | 90 to 92
CC1CCN(CC(O)CN)CC1 (centres undefined) | 63 to 65
Cc1scc(C(=O)O)c1C | 139 to 141
NC(=O)CCCO | 42 to 44
Cn1cc(C(N)=O)c(C(F)F)n1 | 214 to 216
COc1ccc2c(c1)NC(=O)C2O (centres undefined) | 189 to 191
Cc1ccc(S(=O)(=O)N(O)c2ccccc2)cc1 | 36 to 40

Structure (SMILES) | melting point [°C]
CNc1ncnc2ccccc12 | 179 to 181
O=C(CCl)c1ccc(O)cc1O | 108 to 110
CC(Oc1ccccc1F)C(=O)NN (centres undefined) | 64 to 66
COc1ncc(C)cc1N | 77 to 79
O=C(CS)Nc1ccccn1 | 93 to 95
N#Cc1ccc(S(=O)(=O)Cl)cc1Cl | 51 to 53
O=C(c1cc(Cl)c(Cl)[nH]1)C(Cl)(Cl)Cl | 129 to 131
COc1ccc(C(CN)NC(=O)OC(C)(C)C)cc1 (centres undefined) | 90 to 92
N#Cc1cnc2ccccc2c1N1CCNCC1 | 160 to 162
Cc1cc(F)c(S(N)(=O)=O)cc1F | 132 to 134
CN(CCC(N)=S)C(=O)OC(C)(C)C | 79 to 81
Cc1cc(N(C)C)ccc1C#N | 59 to 61
CCOc1ccc(Br)cc1N | 51 to 53
Cc1ccc(-n2cnnn2)cc1N | 171 to 173
Nn1c(S)nnc1-c1ccccc1F | 184 to 186
O=C(O)CCCN1C(=O)CNC1=O | 151 to 153
O=C(O)c1cccnc1N1CCCCC1 | 94 to 96
O=C(c1ccc(S(=O)(=O)Cl)cc1)N1CCOCC1 | 110 to 112
CCOC(=O)c1cc(F)c(F)cc1N | 82 to 84
CC(C)Cn1ncnc1CO | 92 to 94
CCN(CC)S(=O)(=O)c1ccc(NC)c(N)c1 | 119 to 121
O=Cc1ccccc1S(=O)(=O)N1CCOCC1 | 97 to 99
CC1CC1c1cc(N)n(-c2ccccc2)n1 (centres undefined) | 92 to 94
O=C(O)c1ccccc1SCc1nnnn1-c1ccccc1 | 170 to 174
O=C(O)C(Cn1ccc(C(F)(F)F)n1)NC1CC1 (centres undefined) | 175 to 177

Next, values leading:

melting point [°C] | Structure (SMILES)
267 to 269 | C#CCNC(=O)CN1C(=O)C(=O)c2cc(Cl)ccc21
174 to 176 | COc1cccc2[nH]cc(CC(=O)O)c12
195 to 197 | N#CCCCS(=O)(=O)c1ccc(C(=O)O)cc1
150 to 152 | CCOc1ccc(NC(=O)CO)cc1
120 to 122 | Nc1ccc(C(O)c2ccccc2)cc1[N+](=O)[O-] (centres undefined)
110 to 114 | Nc1ncc(Cc2cc(Cl)ccc2Cl)s1
49 to 51 | CC(Cc1ccc(Cl)cc1)C(=O)O (centres undefined)
162 to 164 | O=C(O)CNC(=O)NC1CCCCC1
314 to 316 | O=C(O)c1ccc(-n2ncc(Cl)c(Cl)c2=O)cc1
139 to 141 | O=C(O)c1cccc(Br)c1I
59 to 61 | Cc1ccccc1CCNC(=O)C(C)Cl (centres undefined)
99 to 101 | Cc1cc([N+](=O)[O-])ccc1C#N
183 to 187 | COc1ccc2c(CC(=O)O)cc(=O)oc2c1
121 to 123 | O=C(CCl)N1CCN(S(=O)(=O)c2ccc(F)c(Cl)c2)CC1
205 to 207 | CC1(C(=O)O)CCCN1C(=O)c1ccccc1 (centres undefined)
114 to 116 | Cc1c(S(=O)(=O)Cl)sc2cccc(F)c12
260 to 262 | O=C(O)c1ccc(-c2ccc(Cl)cc2)s1
135 to 137 | CCN(CC)c1ccc(S(N)(=O)=O)cc1NC(=O)CCl
272 to 274 | O=C(O)c1cc(-c2ccco2)nc2cc(F)ccc12
95 to 97 | CCC(C)NC(=O)c1cccc(CN)c1 (centres undefined)
184 to 186 | COc1ccc2c(c1)C=C(C(=O)O)CO2
55 to 57 | CC(C(=O)O)c1ccc(Br)s1 (centres undefined)

melting point [°C] | Structure (SMILES)
219 to 221 | CCOc1cccc2c1OCC(C(=O)O)=C2
159 to 161 | CC(C)c1nc(C(=O)O)nn1-c1ccccc1F
153 to 155 | O=C(O)c1ccccc1Nc1ccc(OC(F)F)cc1
198 to 200 | COc1cccc(C(N)C(=O)O)c1 (centres undefined)
199 to 201 | Cc1c[nH]c(=O)n1-c1ccccc1Cl
82 to 84 | O=C(O)CCNC(=O)c1ccccc1Cl
108 to 110 | CNC(=O)c1ccc(OC)c(N)c1
59 to 61 | COC(=O)c1ccc(Br)cc1F
241 to 243 | Cc1ccn2c(=O)c(C(=O)O)cnc2c1
106 to 108 | NNC(=O)Cc1cccc(F)c1
94 to 96 | CS(=O)(=O)c1cccc(C(N)c2ccc(Cl)cc2)c1 (centres undefined)
140 to 142 | O=C(NCc1ccccc1)c1cccc(O)c1
107 to 109 | Cc1ccc(-c2nn(Cc3ccccc3)cc2/C=C/C(=O)O)cc1
289 to 291 | Nc1cc(C(=O)O)cc(Cl)n1
234 to 236 | O=C(O)CNC(=O)c1ncccc1O
39 to 41 | O=C(NCCS(=O)(=O)Cl)OCc1ccccc1
113 to 115 | O=C(O)CCNS(=O)(=O)c1ccc(Cl)c([N+](=O)[O-])c1
128 to 130 | CCOC(=O)Cc1ncccc1C(=O)O
63 to 65 | CS(=O)(=O)c1ccc(S)cc1
102 to 104 | Cc1cc(C(=O)CCl)c(C)n1-c1cccc(Br)c1
157 to 159 | O=C(O)CCNC(=O)c1c[nH]c2ccccc12
220 to 223 | O=C(O)c1ccc2c3c(cccc13)CC2

melting point [°C] | Structure (SMILES)
197 to 199 | O=C(COc1ccccc1C(=O)O)Nc1ccccc1F
126 to 128 | Cn1cc(CC(=O)O)c2ccccc21
136 to 138 | NC(=S)c1ccc(Cl)c(Cl)c1
95 to 97 | Nc1ccc(C(=O)NCc2ccccc2F)cc1
200 to 202 | CS(=O)Cc1cc(N)ccc1Cl (centres undefined)
198 to 200 | O=C(O)c1nn(-c2ccccc2I)cc1O
230 to 232 | O=C(CCl)Nc1ccc(C(=O)O)cc1
123 to 125 | O=[N+]([O-])c1ccc(N2CCC(CO)CC2)nc1
79 to 81 | CCOC(=O)Nc1ccc(Br)cc1N
186 to 188 | O=C(O)CNC(=O)c1c(Cl)cccc1[N+](=O)[O-]
136 to 138 | Nc1c(F)cccc1S(N)(=O)=O
174 to 176 | O=C(O)CNC(=O)c1cccc(O)c1
123 to 125 | Cc1cccc(OC(C)C(=O)O)c1C (centres undefined)
75 to 77 | COC(=O)NC(Cc1ccccc1)C(=O)O (centres undefined)
162 to 164 | O=C(O)C=Cc1cc(Cl)ccc1OCc1ccc(Cl)cc1
137 to 139 | CNc1cc(C(=O)OC)ccc1[N+](=O)[O-]
154 to 156 | Cc1ccc(S(=O)(=O)N2CCCCC2)cc1S(=O)(=O)Cl
101 to 103 | CCc1ccccc1-n1cc(O)c(C(=O)O)n1
50 to 52 | CC(Sc1ccccc1Cl)C(=O)O (centres undefined)
233 to 235 | Cn1c(C(=O)O)c(Cl)c2ccccc21
264 to 266 | O=C1NC(=O)C2(Cc3ccccc3C2)N1
